Reference: publication PMC5303145 (Brain research, 2016)
Residue numbers refer to the chain shown, from its start.

What was measured:
[1] = target: T1, human α1 glycine receptor WT (Homo sapiens, UniProt P23415); assay type: cell-based; settings: for Imax (% of max glycine): α1 WT, percentage of maximal glycine current ± S.E.M.; for average current elicited: WT GlyR, 10 mM glycine or 100 mM taurine
T1 sequence (P23415 29-449 isoform P23415-2 limits assumed): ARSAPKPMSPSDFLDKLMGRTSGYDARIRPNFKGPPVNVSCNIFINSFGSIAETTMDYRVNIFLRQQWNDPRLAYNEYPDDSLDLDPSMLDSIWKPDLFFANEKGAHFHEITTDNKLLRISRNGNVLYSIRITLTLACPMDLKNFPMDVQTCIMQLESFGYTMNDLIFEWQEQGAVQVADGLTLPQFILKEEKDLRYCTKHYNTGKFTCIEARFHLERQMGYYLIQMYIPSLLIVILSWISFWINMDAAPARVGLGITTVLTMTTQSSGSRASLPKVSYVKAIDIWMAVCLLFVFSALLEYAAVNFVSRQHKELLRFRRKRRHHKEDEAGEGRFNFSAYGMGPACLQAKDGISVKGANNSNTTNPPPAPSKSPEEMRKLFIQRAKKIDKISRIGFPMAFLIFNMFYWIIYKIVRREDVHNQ

D97R α1 GlyR [2] = target: T2, D97R α1 GlyR (Homo sapiens, UniProt P23415, D125R); assay type: cell-based; settings: for increase of maximal currents by the D97R mutation: D97R versus WT; for Imax (% of max glycine): D97R, percentage of maximal glycine current ± S.E.M.; for average current elicited: 10 mM glycine or 100 mM taurine
T2 sequence (P23415 29-449 isoform P23415-2 D125R limits assumed): T1 sequence (P23415 29-449 isoform P23415-2 limits assumed) with D97R

D97R α1 GlyR [3] = target: T2, D97R α1 GlyR; assay type: cell-based; settings: for conductance of the openings: in the presence of taurine or glycine; for Popen of clusters: saturating concentration (100 mM taurine, 10 mM glycine), 2.5 mM tricine
D97 mutant GlyR = settings: saturating concentrations of glycine or taurine
D97A α1 GlyR = settings: for Popen of clusters: D97A, saturating concentration (100 mM taurine, 10 mM glycine), 2.5 mM tricine
D97E α1 GlyR = target: T3, D97E α1 GlyR (Homo sapiens, UniProt P23415, D125E); assay type: cell-based; settings: for average current elicited: D97E α1 GlyR, 10 mM glycine or 100 mM taurine
T3 sequence (P23415 29-449 isoform P23415-2 D125E limits assumed): T1 sequence (P23415 29-449 isoform P23415-2 limits assumed) with D97E

wildtype α1 GlyR = assay type: cell-based, human

SMILES	Imax (% of max glycine) [1]	increase of maximal currents by the D97R mutation (D97R α1 GlyR [2])	Imax (% of max glycine) (D97R α1 GlyR [2])	conductance of the openings (D97R α1 GlyR [3])	Popen of clusters (D97R α1 GlyR [3])	whole-cell current (D97 mutant GlyR)	total current in patch (D97A α1 GlyR; D97A multi-channel patch, sample tracing, 10 mM glycine)	Popen of clusters (D97A α1 GlyR)	average current elicited [1]	average current elicited (D97R α1 GlyR [2]; D97R α1 GlyR)	average current elicited (D97E α1 GlyR)	Popen (wildtype α1 GlyR)	EC50 ([1]; EC50, α1 WT, whole-cell, oocytes, 2.5 mM tricine)	maximal taurine response versus maximal glycine response (D97R α1 GlyR [2]; D97R GlyR, 100 mM taurine vs 10 mM glycine)	greater current than glycine (D97R α1 GlyR [2]; D97R α1 GlyR, taurine and glycine both at 300 mM)	Imax (% of max glycine) (D97E α1 GlyR; D97E, percentage of maximal glycine current ± S.E.M.)
CC(CN)C(=O)O (stereo not drawn) [β-AIBA, β-aminoisobutyric acid]	15.3 ± 3.3%	four- to five-fold	61%	–	–	–	–	–	–	–	–	–	–	–	–	–
NCC(=O)O [Glycine]	–	–	–	approximately 75 pS	0.990 ± 0.001	3000–5000 nA	84 pA	0.938 ± 0.044	27.6 ± 2.9 μA	3.68 ± 0.37 μA	11.9 ± 2.9 μA	–	–	–	–	–
NCCS(=O)(=O)O [Taurine]	41 ± 4.5%	–	–	approximately 75 pS	0.990 ± 0.002	3000–5000 nA	–	0.987 ± 0.003	11.8 ± 1.7 μA	3.56 ± 0.36 μA	11.4 ± 2.9 μA	0.62 ± 0.06	1960 µM	approximately equal	12.7 ± 7.1%	95.6 ± 4.7%
CC(N)CC(=O)O (stereo not drawn) [β-ABA, β-aminobutyric acid]	17.3 ± 9.2%	four- to five-fold	89%	–	–	–	–	–	–	–	–	–	–	–	–	–
